From BindingDB's records for PubMed 33764065 (Niddk, 2021)

Key:
[1] = Inhibition of human non pancreatic secretory phospholipase A2 incubated for 30 mins by plate reader analysis
[2] = Binding affinity to bovine brain membrane BzR assessed as inhibition constant

IC50 [1]	Ki [2]	SMILES
13.6 µM		COc1ccc2c(c1)c(CC(=O)O)c(C)n2Cc1ccccc1 [1-BENZYL-5-METHOXY-2-METHYL-1H-INDOL-3-YL)-ACETIC ACID]
	0.117 µM	O=C(NCc1ccccc1)C(=O)c1c[nH]c2ccc([N+](=O)[O-])cc12 [N-benzyl-2-(5-nitro-1H-indol-3-yl)-2-oxoacetamide]
